Data from PMC10328120 (Nature, 2022).
Where two headings read alike, the source gives them in different places.

Columns and labels:
μOR [1] = biological target: T1, μOR (Homo sapiens, UniProt P35372); test: cell-based; format: cell-based; settings: for Emax: read-out: β-arr1 Emax % ± SEM
μOR [2] = biological target: T1, μOR; test: cell-based; format: cell-based
μOR [3] = biological target: T1, μOR; test: cell-based; format: cell-based; remark: listed apart in the source
C57BL/6J mice [4] = settings: mouse, in vivo
mouse [5] = settings: in vivo
C57BL/6J mice [6] = settings: mouse, in vivo; remark: listed apart in the source
C57BL/6J mice [7] = settings: mouse, in vivo; remark: listed apart in the source
mouse [8] = settings: in vivo; remark: listed apart in the source
mouse [9] = settings: in vivo; remark: listed apart in the source

T1 sequence (P35372 whole entry): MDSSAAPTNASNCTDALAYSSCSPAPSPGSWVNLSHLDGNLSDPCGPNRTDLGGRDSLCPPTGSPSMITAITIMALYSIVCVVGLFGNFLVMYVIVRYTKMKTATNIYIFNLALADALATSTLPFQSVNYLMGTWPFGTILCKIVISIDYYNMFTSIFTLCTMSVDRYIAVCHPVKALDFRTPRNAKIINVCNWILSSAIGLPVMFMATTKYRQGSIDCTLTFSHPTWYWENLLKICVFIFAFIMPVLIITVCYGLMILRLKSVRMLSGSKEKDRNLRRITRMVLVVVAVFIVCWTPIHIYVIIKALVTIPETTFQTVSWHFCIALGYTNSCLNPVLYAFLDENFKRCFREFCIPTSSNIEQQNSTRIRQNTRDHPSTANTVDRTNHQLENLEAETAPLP

Compound	Emax (μOR [1]) [%]	Gz Emax % ± SEM (μOR [2])	Emax (μOR [2]; read-out: G0a Emax % ± SEM) [%]	Emax (μOR [2]; read-out: G0b Emax % ± SEM) [%]	Emax (μOR [2]; read-out: Gi1 Emax % ± SEM) [%]	Emax (μOR [2]; read-out: Gi2 Emax % ± SEM) [%]	Emax (μOR [2]; read-out: Gi3 Emax % ± SEM) [%]	Emax (μOR [2]; read-out: Gz Emax % ± SEM) [%]	β-arrestin-1 recruitment, maximum value (μOR [1]) [%]	β-arrestin-1 recruitment, median value (μOR [1]) [%]	β-arrestin-1 recruitment, minimum value (μOR [1]) [%]	β-arrestin-2 recruitment, maximum value (μOR [3]) [%]	β-arrestin-2 recruitment, median value (μOR [3]) [%]	β-arrestin-2 recruitment, minimum value (μOR [3]) [%]	β-arr2 Emax % ± SEM (μOR [3]) [%]	also measured
CC(C)=CCN1CCC2(C)c3cc(O)ccc3CC1C2C (stereo not drawn) [Pentazocine]	7 ± 4.51	full agonist	89 ± 4	89 ± 3.2	75 ± 1.8	78 ± 3.8	73 ± 2.3	103 ± 1.5	–	–	–	–	–	–	–	Emax (μOR [3]; read-out: β-arr2 Emax % ± SEM): 13 ± 4.04%
C[C@@H](NC(=O)[C@@H](N)Cc1ccc(O)cc1)C(=O)NCC(=O)N(C)[C@@H](Cc1ccccc1)C(=O)NCCO [DAMGO]	–	–	–	–	–	–	–	–	100	100	100	100	100	100	–	–
CC[C@@H]1CN2CC[C@@]3(O)C(=Nc4cccc(OC)c43)[C@@H]2C[C@@H]1/C(=C\OC)C(=O)OC [7-OH, 7-hydroxymitragynine]	–	73 ± 2.8%	–	–	–	–	–	–	0.3	−1.4	−8.0	25.2	−2.4	−13.1	–	G0a Emax % ± SEM (μOR [2]): 65 ± 4.9%; G0b Emax % ± SEM (μOR [2]): 56 ± 3.5%; Gi1 Emax % ± SEM (μOR [2]): 31 ± 4.9%; Gi2 Emax % ± SEM (μOR [2]): 53 ± 5.1%; Respiratory effect (C57BL/6J mice [4]; sc): respiratory depression similar to that caused by morphine
COc1ccsc1CNCC[C@@]1(c2ccccn2)CCOC2(CCCC2)C1 [TRV130]	–	–	67 ± 5.3	76 ± 4.4	58 ± 3.8	58 ± 4.2	45 ± 3.3	98 ± 2.2	–	–	–	–	–	–	26 ± 5.9	–
CN1CC[C@]23c4c5ccc(O)c4O[C@H]2[C@@H](O)C=C[C@H]3[C@H]1C5 [Morphine]	–	–	–	–	–	–	–	–	–	–	–	–	–	–	–	Post-conditioning (post-CPP), maximum (mouse [5]): 819 s; Post-conditioning (post-CPP), median (mouse [5]): 154 s; Post-conditioning (post-CPP), minimum (mouse [5]): -299 s; Pre-conditioning (pre-CPP) difference in time on drug-paired side, minimum (mouse [5]): -542 s; Pre-conditioning (pre-CPP), maximum (mouse [5]): 413 s; Pre-conditioning (pre-CPP), median (mouse [5]): -23 s; Ambulations (locomotor effect) (C57BL/6J mice [6]): hyperlocomotion; Breath rates (C57BL/6J mice [4]): decrease; ED50 95% confidence interval (C57BL/6J mice [7]): 4.4 to 8.43 nmol; Median antinociceptive dose (ED50) (C57BL/6J mice [7]): 6.6 nmol; Antinociception in writhing assay (mouse [8]): significant antinociception compared with vehicle or saline; Number of writhes over 15 min, maximum (mouse [8]): 32; Number of writhes over 15 min, median (mouse [8]): 0; Number of writhes over 15 min, minimum (mouse [8]): 0; Antinociception in formalin assay (mouse [9]): significant antinociception compared with vehicle or saline; Formalin assay response, maximum (mouse [9]): 95 s; Formalin assay response, median (mouse [9]): 7 s; Formalin assay response, minimum (mouse [9]): 1 s
COc1ccc2c3c1O[C@H]1C(=O)CC[C@@]4(O)[C@@H](C2)N(C)CC[C@]314 [Oxycodone]	81 ± 7.9	full agonist	102 ± 5.2	110 ± 3.4	–	83 ± 5.7	75 ± 3.8	102 ± 4.9	–	–	–	–	–	–	80 ± 3.9	–
